Common to all, as to type: cell-based, human
Data set [1] concerns IL-2. Briefly: Inhibition of IL-2 release, stimulated CD4-positive T cells. As to the method:
(§1) The compounds of formulae (I), (IA) and (IB) may be investigated for inhibition of pro-inflammatory cytokines Interleukin-2, 4 and 13 in human CD4-positive T cells isolated from fresh isolated PBMCS using a CD4-positive T cell isolation kit.
(§2) CD4-positive T cells stimulated with beads coated with antibodies against CD2, CD3 and CD28 are incubated for 48 hours containing the compounds under investigation, reconstituted in DMSO. The secreted levels of Interleukin-2, 4 and 13 are measured in the cell culture supernatant using a cytometric bead array and the cell viability is measured using an MTT (3-(4,5-dimethylthiazol-2-yl)-2,5-diphenyltetrazolium bromide) assay.
(§3) Secreted IL-4 levels may be measured using electrochemiluminescence (MSD kits, Meso Scale Discovery), while secreted IL-2 levels may be measured using proximity homogenous time-resolved fluorescence (HTRF) and the amount of living cells may be measured by addition of resazurin (PrestoBlue®).

Data set [2] relates to interleukin (IL)-8. Briefly: Inhibition of Interleukin-8 in PBMCs. Here is the method: (§4) The compounds of formulae (I), (IA) and (IB) may be investigated for inhibition of pro-inflammatory cytokines Interleukin (IL)-1p, 2, 4, 6, 8, 13 and 17A, in peripheral blood mononuclear cells (PBMCs) isolated from fresh human buffy coats by centrifugation on Lymphoprep™ (Stemcell Technologies). All human cells are grown in cell culture medium RPMI-1640 supplemented with 1% penicillin/streptomycin and 5% heat inactivated fetal bovine serum.

The subject of data set [3] is interleukin (IL)-17A. Kind of data set: Inhibition of secreted Interleukin-17A in PMA/ionomycin-stimulated PBMCs (cytometric bead array). Particulars: PBMCs stimulated with PMA/ionomycin, 24 hours. As to the method:
as §4
PBMCs stimulated with PMA/ionomycin are incubated for 24 hours containing the compounds under investigation, reconstituted in DMSO. The secreted levels of Interleukin-17A are measured in the cell culture supernatant using a cytometric bead array and the cell viability is quantified using Trypan blue.

In data set [4] the test system is interleukin (IL)-6. Kind of data set: Inhibition of Interleukin-6 in PBMCs. Here is the method:
as §4

For data set [5], the system named is Interleukin (IL)-1 beta. Briefly: Inhibition of secreted Interleukin-1 beta in LPS-stimulated PBMCs (cytometric bead array). Particulars: PBMCs stimulated with LPS, 24 hours. As to the method: as §4
PBMCs stimulated with LPS (Salmonella enterica serotype typhimurium) are incubated for 24 hours containing the compounds under investigation, reconstituted in dimethyl sulfoxide (DMSO). The secreted levels of Interleukin-1(3 is measured in the cell culture supernatant using a cytometric bead array and the cell viability is quantified using Trypan blue.

Data set [6] concerns IL-4. Kind of data set: Inhibition of IL-4 release, stimulated CD4-positive T cells. As to the method: as §1, §2, §3
Data set [7] relates to CD4-positive T cells. Kind of data set: Inhibition of cell viability in the IL-2/IL-4 release assays. Here is the method:
as §2, §3

Assay in data set [8]: as above
Particulars: human; read-out: Max Effect, Inhibition of cell viability. As to the method: as §2, §3

Turning to `Nc1nnc(C(c2ccccc2)c2ccccc2)c(N)n1` [3,5-Diamino-6-(diphenylmethyl)-1,2,4-triazine], in data set [1], the “level of inhibition of IL-2 (in words)” value is given as “good level of inhibition”. Moreover, in data set [2], the “inhibition of Interleukin IL-8” value is on record as “high inhibition”. In data set [3], the “inhibition of Interleukin IL-17A” value is recorded as “high inhibition”. Further, the “inhibition of Interleukin IL-6” value in data set [4] was “moderate inhibition”. Moreover, the “inhibition of Interleukin IL-1 beta” value in data set [5] was “moderate inhibition”. Besides, the “level of inhibition of IL-4 (in words)” value in data set [6] is “good level of inhibition”. The “inhibition of cell viability (in words)” value in data set [7] is “without significant inhibition”. Besides, the cytotoxicity at 48 h in data set [8] is 28%.
Take `Nc1nnc(-c2sc(Cl)c(Cl)c2Cl)c(N)n1` [3,5-diamino-6-[2-(3,4,5-trichlorothienyl)]-1,2,4-triazine]: the “inhibition of Interleukin IL-8” value in data set [2] was “inhibitory effect”. Moreover, the “inhibition of Interleukin IL-17A” value in data set [3] is given as “inhibitory effect”. Also, the “inhibition of Interleukin IL-6” value in data set [4] was “inhibitory effect”. In data set [5], the “inhibition of Interleukin IL-1 beta” value is “inhibitory effect”.

For the origin of these results see patent US20230167075A1, “INTERLEUKIN INHIBITORS” (UNIVERSITY OF GREENWICH, priority 2020, published 2023).
